Experimental data reported in patent publication USRE48842E1, “Pyrimido-pyrrolo-oxazine-dione compound inhibitors of the cystic fibrosis transmembrane conductance regulator protein and uses therefor” (The Regents of the University of California, priority 2011, dated 2021).
pIC50: −log10 of the molar value. Values joined by “and” are separate entries in the source; they are usually repeats but may differ in a detail not shown here. Equal entries are not always repeated.

Experiments:
[1] = In vitro metabolism in hepatic microsomes (LC/MS); type: in vitro ADME, rat; details: in the presence of NADPH
Experimental: (§1) In Vitro Metabolism in Hepatic Microsomes—A compound of structure (I) was incubated for specified times at 37° C. with rat liver microsomes (e.g., 1 mg protein/ml; Sigma-Aldrich, St. Louis, Mo.) in potassium phosphate buffer (100 mM) containing NADPH (0 or 1 mM). The mixture was then chilled on ice, and 0.5 ml of ice-cold ethyl acetate was added. Samples were centrifuged for 15 min at 3,000 rpm, and the supernatant was evaporated to dryness under nitrogen. The residue was dissolved in 150 μl mobile phase (acetonitrile:water 3:1, containing 0.1% formic acid) for LC/MS analysis. Reverse-phase HPLC separations were carried out using a Waters C18 column (2.1×100 mm, […]) equipped with a solvent delivery system (Waters model 2690, Milford, Mass.). The solvent system consisted of a linear gradient from 5 to 95% acetonitrile run over 16 min (0.2 mL/min flow rate). Mass spectra were acquired on an Alliance HT 2790+ZQ mass spectrometer using negative ion detection.
as §1, with “Liquid Chromatography/Mass Spectrometry—Compounds (each at 5 μM) were” for “In Vitro Metabolism in Hepatic Microsomes—A compound of structure (I) was”, “(1” for “(e.g., 1”, “150” for “150 μl”, “detection, scanning from 150 to 1500 Da. The electrospray ion source parameters were as follows: capillary voltage 3.5 kV (positive ion mode), cone voltage 37 V, source temperature 120° C., desolvation temperature 250° C., cone gas flow 25 L/h, and dessolvation gas flow 350 L/h.” for “detection.”
PPQ-102 is a small-molecule inhibitor of CFTR chloride conductance with efficacy in preventing and reversing cyst formation in an organ culture model of PKD (see, e.g., Tradtrantip et al., J. Med. Chem. 2009, supra; Int'l Patent Appl. Publication No. WO 2011/019737). Preliminary analysis of the metabolic stability and aqueous solubility of PPQ-102, indicated poorer metabolic stability and lower water solubility (˜2 μM in albumin-free saline) than desired for optimal drugability. In vitro metabolic stability was determined by compound incubation with hepatic microsomes at 37° C. for specified times in the absence vs. presence of NADPH, following by LC/MS analysis. Shown in FIG. 6A is PPQ-102 disappearance in hepatic microsomes in the presence of NADPH, with ˜60% disappearance in 30 min.

human wildtype CFTR [2] = target: T1, human wildtype CFTR (Homo sapiens, UniProt P13569); experiment: Short-circuit current analysis of CFTR inhibition in CFTR-expressing FRT cells; type: cell-based; parameters: expressed in transfected cells; host or cells: Fischer rat thyroid (FRT) epithelial cells on Snapwell inserts; details: for inhibition of short-circuit current: 100 nM; for pIC50 / inhibition of CFTR chloride conductance (in words): short-circuit current; for pIC50: FRT cells expressing human CFTR, forskolin-stimulated, read-out: IC50 for inhibition of CFTR chloride conductance; for IC50: Determined by short-circuit current assay, read-out: IC50 (μM)^B
T1 sequence (P13569 whole entry): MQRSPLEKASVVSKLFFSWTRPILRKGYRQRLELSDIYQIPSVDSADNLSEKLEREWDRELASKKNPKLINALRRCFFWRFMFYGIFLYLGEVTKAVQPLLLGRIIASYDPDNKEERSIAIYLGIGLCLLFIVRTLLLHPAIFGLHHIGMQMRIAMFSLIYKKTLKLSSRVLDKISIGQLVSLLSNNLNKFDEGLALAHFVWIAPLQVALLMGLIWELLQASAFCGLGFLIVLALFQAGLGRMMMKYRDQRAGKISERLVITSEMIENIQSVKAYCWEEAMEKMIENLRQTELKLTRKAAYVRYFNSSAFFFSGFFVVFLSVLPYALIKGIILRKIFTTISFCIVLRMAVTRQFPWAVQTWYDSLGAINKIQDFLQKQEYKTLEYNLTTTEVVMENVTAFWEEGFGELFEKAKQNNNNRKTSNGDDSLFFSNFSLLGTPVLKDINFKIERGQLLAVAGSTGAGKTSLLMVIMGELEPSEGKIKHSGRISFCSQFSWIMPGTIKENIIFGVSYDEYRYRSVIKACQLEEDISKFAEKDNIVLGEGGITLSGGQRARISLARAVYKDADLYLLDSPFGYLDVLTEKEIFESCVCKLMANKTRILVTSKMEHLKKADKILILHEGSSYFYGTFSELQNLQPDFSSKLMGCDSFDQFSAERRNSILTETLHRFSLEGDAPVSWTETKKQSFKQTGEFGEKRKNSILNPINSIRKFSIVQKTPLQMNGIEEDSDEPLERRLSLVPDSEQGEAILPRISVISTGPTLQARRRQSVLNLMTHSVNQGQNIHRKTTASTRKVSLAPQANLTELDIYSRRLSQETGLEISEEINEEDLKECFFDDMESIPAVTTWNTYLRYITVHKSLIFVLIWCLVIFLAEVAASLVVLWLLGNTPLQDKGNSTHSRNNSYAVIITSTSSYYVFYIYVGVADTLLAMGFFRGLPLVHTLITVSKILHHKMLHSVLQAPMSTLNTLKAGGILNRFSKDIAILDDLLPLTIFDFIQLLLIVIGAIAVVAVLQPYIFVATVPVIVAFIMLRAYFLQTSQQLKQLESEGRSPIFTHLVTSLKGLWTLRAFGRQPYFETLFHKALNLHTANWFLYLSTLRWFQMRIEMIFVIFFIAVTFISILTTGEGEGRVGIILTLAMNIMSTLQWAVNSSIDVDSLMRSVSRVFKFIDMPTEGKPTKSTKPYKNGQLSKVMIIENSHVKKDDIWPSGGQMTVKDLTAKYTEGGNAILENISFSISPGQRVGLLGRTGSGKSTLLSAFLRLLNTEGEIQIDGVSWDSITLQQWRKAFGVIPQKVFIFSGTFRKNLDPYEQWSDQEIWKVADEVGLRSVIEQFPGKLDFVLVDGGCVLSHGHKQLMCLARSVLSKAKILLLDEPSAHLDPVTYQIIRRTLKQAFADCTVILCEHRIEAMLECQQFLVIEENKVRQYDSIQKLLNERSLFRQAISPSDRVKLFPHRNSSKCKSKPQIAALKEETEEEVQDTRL
Experimental: Short-Circuit Current—Snapwell inserts containing CFTR-expressing FRT cells were mounted in an Ussing chamber. The hemichambers contained 5 mL of buffer containing 75 mM NaCl and 75 mM Na gluconate (apical) and 150 mM NaCl (basolateral) (pH 7.3), and the basolateral membrane was permeabilized with 250 μg/mL amphotericin B, as described (see, e.g., Sonawane et al., FASEB J 2006, supra). Short-circuit current was recorded continuously using a DVC-1000 voltage clamp (World Precision Instruments) using Ag/AgCl electrodes and 3 M KCl agar bridges.
Current was measured in CFTR-expressing FRT cells in which the basolateral membrane was permeabilized and in the presence of a transepithelial chloride concentration gradient, so that current is a quantitative linear measure of CFTR function. CFTR was activated by forskolin, followed by serial additions of increasing concentrations of test compounds.
CFTR inhibition potency was measured by short-circuit current analysis in FRT epithelial cells expressing human CFTR in presence of a transepithelial chloride gradient and in which the basolateral membrane was permeabilized with amphotericin B. Under these conditions short-circuit current is proportional to CFTR chloride conductance.

human wildtype CFTR [3] = target: T1, human wildtype CFTR; experiment: Fluorescence plate reader assay of CFTR inhibition (iodide influx); type: cell-based; parameters: expressed in transfected cells; host or cells: Fischer rat thyroid (FRT) cells; details: Determined by micro-plate reader assay; FRT cells co-expressing human wild type CFTR and YFP-H148Q
Experimental: Cell Culture and Plate Reader Assay of CFTR Inhibition—Fischer rat thyroid (FRT) cells co-expressing human wild type CFTR and the halide indicator YFP-H148Q were cultured in 96-well black-walled microplates (Corning Costar) at a density of 20,000 cells per well in Coon's modified F12 medium containing 10% fetal bovine serum, 2 mM L-glutamine, 100 U/mL penicillin and 100 μg/mL streptomycin. CFTR chloride conductance was assayed at 48 h after plating on a FluoStar fluorescence plate reader (BMG Lab Technologies) as described (see, e.g., Ma et al., J Clin Invest. 2002, supra). Each well was washed 3 times with PBS, leaving 60 μL PBS. Test compounds were added and incubated with the cells for 45 min. Then, 5 μL of a CFTR-activating cocktail (10 μM forskolin, 100 μM IBMX, 20 μM apigenin in PBS) was added. After 15 min, each well was assayed for iodide influx by recording fluorescence continuously (200 ms per point) for 2 s (baseline) and then for 10 s after rapid addition of 160 μL of isosmolar PBS in which 137 mM chloride was replaced by iodide. The initial rate of iodide influx was computed from fluorescence data by non-linear regression.
Initial testing of the compounds for the capability to inhibit CFTR was performed using a plate-reader assay in which iodide influx was measured in FRT cells co-expressing human wild type CFTR and the iodide-sensing yellow fluorescent protein YFP-H148Q/1152L. […] Table B below provides IC50 values for PPQ and BPO compounds.
The relative IC50 values obtained from the plate reader assay are useful for comparisons. Absolute IC50 values obtained from the plate-reader assay are approximate, generally underestimating compound potency because of assay non-linearities, pH-dependent YFP fluorescence, the use of iodide instead of chloride, and compound dilution at the start of the assay (see, e.g., Galietta et al., Am. J. Physiol. Cell Physiol. 281:C1734-42 (2001)).

Row | SMILES | metabolic stability in hepatic microsomes (in words) [1] | inhibition of short-circuit current (human wildtype CFTR [2]) | pIC50 (human wildtype CFTR [2]) | inhibition of CFTR chloride conductance (in words) (human wildtype CFTR [2]) | pIC50 (human wildtype CFTR [3]) | IC50 (human wildtype CFTR [2]) [µM]
1 | Cn1c(=O)c2c(-c3ccccc3)n3c(c2n(C)c1=O)[C@H](c1ccc(Br)o1)Oc1ccc(C(=O)O)cc1-3 (single isomer, unassigned) [(R)-BPO-27, 6R-(5-Bromofuran-2-yl)-7,9-dimethyl-8,10-dioxo-11-phenyl-7,8,9,10-tetrahydro-6H-benzo[b]pyrimido [4′,5′:3,4]pyrrolo [1,2-d][1,4]oxazine-2-carboxylic acid] | little metabolism | completed inhibited current | 8.40 and ~8.40 |  |  | 
2 | Cn1c(=O)c2c(-c3ccccc3)n3c(c2n(C)c1=O)[C@@H](c1ccc(Br)o1)Oc1ccc(C(=O)O)cc1-3 (single isomer, unassigned) [(S)-BPO-27, 6S-(5-Bromofuran-2-yl)-7,9-dimethyl-8,10-dioxo-11-phenyl-7,8,9,10-tetrahydro-6H-benzo[b]pyrimido [4′,5′:3,4]pyrrolo [1,2-d][1,4]oxazine-2-carboxylic acid] | little metabolism | no significant inhibition | ~8.40 | inactive |  | 
3 | Cn1c(=O)c2c(-c3ccccc3)n3c(c2n(C)c1=O)C(c1ccc(Br)o1)Oc1ccccc1-3 (stereo not shown) [BPO-16, 6-(5-Bromofuran-2-yl)-7,9-dimethyl-11-phenyl-6H-benzo[b]pyrimido[4′,5′-3,4]pyrrolo[1,2-d]oxazine-8,10-(7H,9H)-dione] | better stability than PPQ-102 |  |  |  | 6.70 | 0.09
4 | Cn1c(=O)c2c(-c3ccccc3)n3c(c2n(C)c1=O)C(c1ccc(Br)o1)Oc1ccc([N+](=O)[O-])cc1-3 (stereo not shown) [BPO-21, 6-(5-bromofuran-2-yl)-7,9-Dimethyl-2-nitro-11-phenyl-6H-benzo[b]pyrimido[4′,5′-3,4]pyrrolo[1,2-d]oxazine-8,10-(7H,9H)-dione] | excellent metabolic stability |  |  | substantially greater CFTR inhibition potency | 6.92 | 0.025
5 | Cn1c(=O)c2c(-c3ccccc3)n3c(c2n(C)c1=O)C(c1ccc(Br)o1)Nc1ccccc1-3 (stereo not shown) [PPQ-10, 6-(5-Bromofuran-2-yl)-7,9-dimethyl-11-phenyl-5,6-dihydropyrimido[4′,5′-3,4]pyrrolo[1,2-a]quinoxaline-8,10-(7H,9H)-dione] | substantially more stable than PPQ-102 |  |  |  | 7.05 | 0.05
6 | Cn1c(=O)c2c(-c3ccccc3)n3c(c2n(C)c1=O)C(c1ccc(I)o1)Nc1ccccc1-3 (stereo not shown) [PPQ-11, 7,9-Dimethyl-6-(5-iodofuran-2-yl)-11-phenyl-5,6-dihydropyrimido[4′,5′-3,4]pyrrolo[1,2-a]quinoxaline-8,10-(7H,9H)-dione] |  |  |  |  | 6.77 | 0.1
